The values that follow come from patent US20180161314A1, “Methods for Treating Hyperuricemia and Related Diseases” (Ardea Biosciences, Inc., priority 2010, published 2018).

For this experiment, the system named is gout patients with hyperuricemia. Description: Febuxostat alone and in combination with drug 1, open-label study in gout patients with hyperuricemia (Examples 23, 24). The class given is in vivo, human. The note with it: for Mean absolute sUA reduction / Mean sUA % change / Mean sUA level: ± SE. The procedure: Study Objectives • To measure the effect of febuxostat alone and in combination with drug 1 on serum urate concentrations. • To evaluate the safety and tolerability of drug 1 in combination with febuxostat.
The study is open-label in gout patients with hyperuricemia, involving 2 panels of ˜10-12 patients per panel. The panels may be enrolled simultaneously.
Panel 1 receives a once-daily dose of febuxostat 40 mg with ascending doses of drug 1. Panel 2 receives a once-daily dose of febuxostat 80 mg with ascending doses of drug 1.
• Day −14 to Day 28: colchicine prophylaxis; or • Day −7 to Day 28: colchicine prophylaxis (for patients not washing out from ULT) • Days 1-7: febuxostat 40 mg qd • Days 8-14: febuxostat 40 mg qd+drug 1 400 mg qd • Days 15-21: febuxostat 40 mg qd+drug 1 600 mg qd
• Day −14 to Day 28: colchicine prophylaxis; or • Day −7 to Day 28: colchicine prophylaxis (for patients not washing out from ULT) • Days 1-7: febuxostat 80 mg qd • Days 8-14: febuxostat 80 mg qd+drug 1 400 mg qd • Days 15-21: febuxostat 80 mg qd+drug 1 600 mg qd
Gout patients on a urate lowering therapy (ULT), have previously taken a ULT or who have never taken a ULT are eligible to participate. Screening procedures to determine patient eligibility are performed within approximately 21 days of the first dose of study drug (Day 1). Subjects currently on ULT wash-out for approximately 14 days before Day 1, and begin colchicine (Colcrys® 0.6 mg qd, URL Pharma) as prophylaxis for gout flares. During the washout period, subjects who have discontinued ULT may have their sUA re-tested (at least 7 days after washing out) to confirm eligibility. Subjects not on ULT begin colchicine administration at least 7 days prior to Day 1. […] Patients intolerant of colchicine during the screening period are considered screen failures and not enrolled. Prophylactic administration of colchicine continues for 7 days after the last dose of study medication.
Eligible patients report to the study center early morning on Days −1, 7, 14, and 21 (or the afternoon/evening the day before). Serial blood samples are collected on Days −1, 7, 14, and 21. 24-hour urine collection is obtained on Days −1, 7, 14, and 21. Spot urine assessments also obtained on Day −1.
Study medication is administered to each patient and taken orally every morning with approximately 240 mL of water, at approximately the same time of the morning every day, and approximately 30 minutes after finishing a full breakfast (approximately 650 Kcal and 35% fat); the breakfast is standardized on Days −1 to 21.
Inclusion Criteria • Patient is male or post-menopausal or surgically sterile female. • Patient is 18-80 years of age, inclusive. • Patient meets one or more criteria for the diagnosis of gout as per the American Rheumatism Association (ARA) Criteria for the Classification of Acute Arthritis of Primary Gout (Appendix C). • Patient sUA≥8 mg/dL at screening. • Patient willing and able to give informed consent and adhere to visit/protocol schedules • No clinically relevant abnormalities in blood pressure (BP), heart rate (HR), body temperature and respiratory rate as per Investigator's judgment.
Subject urate serum levels are recorded, and any safety concerns assessed (by adverse events, clinical laboratory test results, vital signs, 12-lead ECGs, and physical examinations). […] Urate serum concentrations are evaluated for treatment- and/or time-dependent changes relative to baseline (Day −1), and may be expressed both in standard units (mg/dL) and as changes from baseline (e.g., percent change, absolute change, maximal change, and time or day of maximal change).
Drug 1 was tested according to the clinical trial protocol described in Example 23.
Serum urate levels were measured and absolute and % reduction levels from baseline calculated. Mean levels, mean absolute reductions (mg/dL, all data SE) and % change results are presented in the table below and in FIGS. 10 and 11. […]

Setting [1] is: FBX 40 mg alone, FBX 40 mg + Drug 1 400 mg.
Setting [2] is: FBX 40 mg qd alone days 1-7, FBX 40 mg + Drug 1 400 mg qd days 8-14.
Setting [3] is: FBX 80 mg alone, FBX 80 mg + Drug 1 400 mg.
Setting [4] is: FBX 80 mg qd alone days 1-7, FBX 80 mg + Drug 1 400 mg qd days 8-14.

The structures appear in SMILES notation.

In the case of `Cc1nc(-c2ccc(OCC(C)C)c(C#N)c2)sc1C(=O)O` [Febuxostat, 2-(3-Cyano-4-isobutoxyphenyl)-4-methyl-1,3-thiazole-5-carboxylic acid, reference compound], under setting [1], the “% Response rate for sUA <3 mg/dL” value is 0%, the “% Response rate for sUA <4 mg/dL” value turned out to be 0%, the “% Response rate for sUA <5 mg/dL” value turned out to be 17% and the “% Response rate for sUA <6 mg/dL” value turned out to be 67%. In addition, under setting [2], the “Mean absolute sUA reduction” value was -3.2 ± 0.21 mg/dL, the “Mean sUA % change” value is −35.7 ± 2.0% and the “Mean sUA level” value is listed as 5.6 ± 0.24 mg/dL. Moreover, under setting [3], the “% Response rate for sUA <3 mg/dL” value stood at 0%, the “% Response rate for sUA <4 mg/dL” value is 0%, the “% Response rate for sUA <5 mg/dL” value was determined as 22% and the “% Response rate for sUA <6 mg/dL” value is on record as 56%. Under setting [4], the “Mean absolute sUA reduction” value was -4.6 ± 0.51 mg/dL, the “Mean sUA % change” value is −44.2 ± 3.5% and the “Mean sUA level” value was found to be 5.7 ± 0.29 mg/dL.
